Laboratory results taken from patent publication US20100150930A1, “MAGE-11 AS A MARKER FOR ENDOMETRIAL RECEPTIVITY TO EMBRYO TRANSPLANTATION AND A MARKER AND THERAPEUTIC TARGET IN CASTRATION-RECURRENT PROSTATE CANCER” (The University of North Carolina at Chapel Hill, priority 2007, published 2010).

Legend:
MAGE-11 mRNA [1] = test: MAGE-11 mRNA by real-time PCR in Ishikawa cells; type: cell-based, human; conditions: for change in MAGE-11 mRNA levels: 100 Units/ml hCG, 10 nM progesterone, 10 nM DHT or 10 ng/ml EGF
Method: (§1) For MAGE-11 and AR mRNA in the human endometrial ECC-1 and Ishikawa cell lines, cells were passed 4 days prior to each experiment into medium without phenol red containing 5% charcoal stripped serum (Atlanta Biologicals, Lawrenceville, Ga.). […] RNA was extracted using RNeasy Plus Mini kit (Qiagen, Valencia, Calif.) and cDNA prepared from 4 μg total RNA as above. β-Glucuronidase (GusB) forward primer 5′-[…]-3′ (SEQ ID NO:4) and reverse primer 5′-[…]-3′ (SEQ ID NO:5) amplify a 65 by region coding for amino acid residues 120-140. The 5′-[…]-3′ (SEQ ID NO:6) GusB probe overlaps the exon 2 and 3 boundary. PCR was carried out in 20 μl reactions containing cDNA from 0.4 μg total RNA, 4 μl LightCycler TaqMan Master mix (Roche, Indianapolis, Ind.) and 0.5 μl 20× TaqMan Mix (Applied Biosystems, Foster City, Calif.) for AR or MAGE-11, or 0.5 μM primer and 0.2 μM probe for GusB. PCR reactions were 1 cycle at 95° C. for 10 min followed by 55 cycles of 95° C. for 15 sec, 60° C. for 25 sec and 72° C. for 1 sec in a Roche Lightcycler. […] Results were averaged from duplicates of 6 or 10 cm dishes of ECC-1 or Ishikawa cell cultures.

MAGE-11 mRNA [2] = test: MAGE-11 mRNA by real-time PCR in ECC-1 cells; type: cell-based, human; conditions: for change in MAGE-11 mRNA levels: 100 Units/ml hCG, 10 nM progesterone, 10 nM DHT or 10 ng/ml EGF
Method: as §1

Flag-MAGE-11 = conditions: COS cells, with wild-type AR, 2 and 10 nM DHT, 24 h
MAGE-11 mRNA [3] = test: MAGE-11 mRNA by real time RT-PCR in LNCaP cells; type: cell-based, human
PR-B [4] = test: PR immunoblot in ECC-1 cells; type: cell-based, human; conditions: 10 nM E2 for 48 h
Method: (§2) Immunoblot analysis. MAGE-11, AR, PR and ERα protein levels in ECC-1 (2×10^6/6 cm dish) and Ishikawa cells (4×10^6/10 cm dish) were determined by immunoblot. Cells were plated in medium without phenol red containing 5% charcoal stripped serum after culturing in the same media for 4 days. Cells were treated, washed and harvested in cold phosphate buffered saline containing 1 mM dithiothreitol, 1 mM phenylmethylsulfonyl fluoride, 5 μg/ml leupeptin, 5 μg/ml pepstatin A and 5 μg/ml aprotinin, and solubilized in buffer containing 1% Triton X-100, 0.15 M NaCl, 0.5 mM EDTA, 1% sodium deoxycholate, 0.1% SDS, 50 mM Tris-HCl, pH 7.4 and protease inhibitors listed above. […] Protein concentration was determined by BioRad assay using bovine serum albumin as standard.

PR-B [5] = test: PR immunoblot in Ishikawa cells; type: cell-based, human; conditions: 10 nM E2 for 48 h
Method: as §2

AR mRNA = AR mRNA by real-time PCR in ECC-1 cells; type: cell-based, human
Method: as §1

MAGE-11 protein = test: MAGE-11 immunoblot in Ishikawa cells; type: cell-based, human; conditions: 10 nM E2, 48 h
Method: as §2

C[C@]12CCC(=O)C[C@@H]1CC[C@@H]1[C@@H]2CC[C@]2(C)[C@@H](O)CC[C@@H]12 [DHT, dihydrotestosterone]
change in MAGE-11 mRNA levels (MAGE-11 mRNA [1]): unchanged | change in MAGE-11 mRNA levels (MAGE-11 mRNA [2]; ECC-1 cells): unchanged | effect on MAGE-11 protein levels (Flag-MAGE-11): declined

C[C@]12CC[C@@H]3c4ccc(O)cc4CC[C@H]3[C@@H]1CC[C@@H]2O [E2, 17β-estradiol]
effect on cyclic-AMP induction of MAGE-11 mRNA (MAGE-11 mRNA [3]): not inhibited | effect on PR-B levels (PR-B [4]): increased | effect on cAMP induced increase in MAGE-11 mRNA (MAGE-11 mRNA [1]; 10 nM E2 with dibutyryl-cAMP, 48 h, lesser extent than in ECC-1 cells): inhibited | effect on PR-B levels (PR-B [5]): increased | increase in AR mRNA levels (AR mRNA; 10 nM E2): ~3 fold | E2 concentration required to increase AR mRNA (AR mRNA; dose response, 48 h): 1 nM | time required for inhibitory effect on MAGE-11 mRNA (MAGE-11 mRNA [2]; ECC-1 cells): more than 6 h | effect on increase in MAGE-11 mRNA levels during culture (MAGE-11 mRNA [2]; ECC-1 cells, 0.01 nM E2, dose response, 48 h): partial inhibition | effect on increase in MAGE-11 mRNA levels during culture (MAGE-11 mRNA [2]; ECC-1 cells, 10 nM E2, 72 h culture in phenol red-free, charcoal stripped serum medium): blocked | effect on cAMP induced increase in MAGE-11 mRNA (MAGE-11 mRNA [2]; ECC-1 cells, 10 nM E2 with 2 mM dibutyryl-cAMP, greater extent than in Ishikawa cells): inhibited | concentration required to partially inhibit MAGE-11 expression relative to that required to increase AR expression (fold less) (MAGE-11 mRNA [2]; endometrial cell lines): ~100 fold | effect on ~67 kDa MAGE-11 protein level (MAGE-11 protein): declined

C[C@]12CC[C@@H]3c4ccc(O)cc4C[C@@H](CCCCCCCCC[S+]([O-])CCCC(F)(F)C(F)(F)F)[C@H]3[C@@H]1CC[C@@H]2O (stereo partly shown) [ICI-182,780]
effect on E2 induced increase in AR mRNA (AR mRNA; 1 μM ICI-182,780): blocked | effect on MAGE-11 mRNA levels (MAGE-11 mRNA [2]; ECC-1 cells, 1 μM ICI-182,780 in the absence and presence of E2 (0.1 nM), 48 h): increased

C=C[C@@]1(C)CC(=O)[C@]2(O)[C@@]3(C)[C@@H](O)CCC(C)(C)[C@@H]3[C@H](O)[C@H](OC(C)=O)[C@@]2(C)O1 [forskolin]
increase in MAGE-11 mRNA levels (MAGE-11 mRNA [1]; 50 μM): ~4 fold | increase in MAGE-11 mRNA levels (MAGE-11 mRNA [2]; ECC-1 cells, 50 μM): ~4 fold

CC(=O)[C@H]1CC[C@H]2[C@@H]3CCC4=CC(=O)CC[C@]4(C)[C@H]3CC[C@]12C [progesterone]
change in MAGE-11 mRNA levels (MAGE-11 mRNA [1]): unchanged | MAGE-11 mRNA with progesterone after E2 pretreatment (MAGE-11 mRNA [1]; pretreatment with 10 nM E2 for 48 h (data not shown)): no increase | MAGE-11 mRNA with progesterone after E2 pretreatment (MAGE-11 mRNA [2]; ECC-1 cells, pretreatment with 10 nM E2 for 48 h (data not shown)): no increase | change in MAGE-11 mRNA levels (MAGE-11 mRNA [2]; ECC-1 cells): unchanged

EGF: EGF growth factor, used at 10 ng/ml
change in MAGE-11 mRNA levels (MAGE-11 mRNA [1]): unchanged | change in MAGE-11 mRNA levels (MAGE-11 mRNA [2]; ECC-1 cells): unchanged
